Reference: ChEMBL document CHEMBL1123498, “Structural studies on bioactive compounds. 4. A structure-antitumor activity study on analogues of N-methylformamide” (J Med Chem, 1986)

How the values were obtained:
Mus musculus [1] = experiment: Antitumor activity was evaluated against the M5076 reticulum cell sarcoma in mice at dose of 2500-600 mg/kg per day; assay type: ADME, organism-based
Mus musculus [2] = experiment: Antitumor activity was evaluated against the M5076 reticulum cell sarcoma in mice measured as mean tumor volume for the treated at the optimal dose 1000 mg/Kg/day; assay type: functional
Mus musculus [3] = experiment: Antitumor activity was evaluated for the compound against the M5076 reticulum cell sarcoma in mice and the % T/C(treated/control) value was calculated at optimal dose of 1000 mg/kg; assay type: functional
Mus musculus [4] = experiment: Antitumor activity was evaluated against the M5076 reticulum cell sarcoma in mice measured as Control tumor volume for the treated at the optimal dose 1000 mg/Kg/day; assay type: functional
Mus musculus [5] = experiment: Antitumor activity was evaluated against the M5076 reticulum cell sarcoma in mice measured as mean tumor volume for the treated at the optimal dose 400 mg/kg day; assay type: functional
Mus musculus [6] = experiment: Antitumor activity was evaluated against the M5076 reticulum cell sarcoma in mice measured as Control tumor volume for the treated at the optimal dose 400 mg/Kg day; assay type: functional
Mus musculus [7] = experiment: Antitumor activity was evaluated against the M5076 reticulum cell sarcoma in mice at dose of 800-100 mg/kg per day; assay type: ADME, organism-based
Mus musculus [8] = experiment: Antitumor activity was evaluated against the TLX5 lymphoma in mice measured for control as death day at a optimal doses of 800 mg/Kg/day; assay type: functional
Mus musculus [9] = experiment: Antitumor activity was evaluated against the TLX5 lymphoma in mice measured as treated to control at optimal dose. 400 mg/Kg/day; assay type: functional
Mus musculus [10] = experiment: Antitumor activity was evaluated against the TLX5 lymphoma measured as mean death day for the treated at a optimal dose 800 mg/Kg/day; assay type: functional
Mus musculus [11] = experiment: Antitumor activity was evaluated against the TLX5 lymphoma in mice measured as treated to control at a optimal dose of 200 mg/Kg/day; assay type: functional
Mus musculus [12] = experiment: Antitumor activity was evaluated against the TLX5 lymphoma in mice measured for control as death day at the below optimal dose 400 mg/Kg/day; assay type: functional
Mus musculus [13] = experiment: Antitumor activity was evaluated against the TLX5 lymphoma measured as mean death day for the treated at a optimal dose of 100 mg/Kg/day; assay type: functional
Mus musculus [14] = experiment: Antitumor activity was evaluated for the compound against the M5076 reticulum cell sarcoma in mice and the % T/C(treated/control) value was calculated at optimal dose of 200 mg/kg; assay type: functional
Mus musculus [15] = experiment: Antitumor activity was evaluated against the TLX5 lymphoma measured as mean death day for the treated at a optimal dose of 400 mg/Kg/day; assay type: functional
Mus musculus [16] = experiment: Antitumor activity was evaluated against the M5076 reticulum cell sarcoma in mice at dose of 400-6.25 mg/kg per day; assay type: ADME, organism-based
Mus musculus [17] = experiment: Antitumor activity was evaluated for the compound against the M5076 reticulum cell sarcoma in mice and the % T/C(treated/control) value was calculated at optimal dose of 100 mg/kg; assay type: functional
Mus musculus [18] = experiment: Antitumor activity was evaluated against the TLX5 lymphoma in mice measured for control as death day at a optimal dose of 100 mg/Kg/day; assay type: functional
Mus musculus [19] = experiment: Antitumor activity was evaluated against the TLX5 lymphoma in mice measured for control as death day at a optimal dose of 800 mg/Kg/day; assay type: functional
Mus musculus [20] = experiment: Antitumor activity was evaluated against the TLX5 lymphoma in mice measured as treated to control at a optimal dose of 800 mg/Kg/day; assay type: functional
Mus musculus [21] = experiment: Antitumor activity was evaluated against the M5076 reticulum cell sarcoma in mice measured as Control tumor volume for the treated at the optimal dose 50 mg/kg/day; assay type: functional
Mus musculus [22] = experiment: Antitumor activity was evaluated against the TLX5 lymphoma measured as mean death day for the treated at a optimal dose of 800 mg/Kg/day; assay type: functional
Mus musculus [23] = experiment: Antitumor activity was evaluated against the M5076 reticulum cell sarcoma in mice measured as mean tumor volume for the treated at the optimal dose 25 mg/Kg/day; assay type: functional
Mus musculus [24] = experiment: Antitumor activity was evaluated against the M5076 reticulum cell sarcoma in mice measured as Control tumor volume for the treated at the optimal dose 100 mg/kg/day; assay type: functional
Mus musculus [25] = experiment: Antitumor activity was evaluated for the compound against the M5076 reticulum cell sarcoma in mice and the % T/C(treated/control) value was calculated at optimal dose of 50 mg/kg; assay type: functional
Mus musculus [26] = experiment: Antitumor activity was evaluated against the M5076 reticulum cell sarcoma in mice measured as mean tumor volume for the treated at the optimal dose 100 mg/Kg/day; assay type: functional
Mus musculus [27] = experiment: Antitumor activity was evaluated against the TLX5 lymphoma measured as mean death day for the treated at a optimal dose of 200 mg/Kg/day; assay type: functional
Mus musculus [28] = experiment: Antitumor activity was evaluated against the TLX5 lymphoma in mice measured for control as death day at a optimal dose of 200 mg/Kg/day; assay type: functional
Mus musculus [29] = experiment: Antitumor activity was evaluated against the TLX5 lymphoma in mice measured as treated to control at a optimal dose of 400 mg/Kg/day; assay type: functional
Mus musculus [30] = experiment: Antitumor activity was evaluated against the TLX5 lymphoma in mice measured as treated to control at a optimal dose of 100 mg/Kg/day; assay type: functional
Mus musculus [31] = experiment: Antitumor activity was evaluated against the M5076 reticulum cell sarcoma in mice measured as mean tumor volume for the treated at the optimal dose 50 mg/Kg/day; assay type: functional
Mus musculus [32] = experiment: Antitumor activity was evaluated against the M5076 reticulum cell sarcoma in mice measured as Control tumor volume for the treated at the optimal dose 200 mg/Kg/day; assay type: functional
Mus musculus [33] = experiment: Antitumor activity was evaluated for the compound against the M5076 reticulum cell sarcoma in mice and the % T/C(treated/control) value was calculated at optimal dose of 25 mg/kg; assay type: functional
Mus musculus [34] = experiment: Antitumor activity was evaluated against the M5076 reticulum cell sarcoma in mice measured as Control tumor volume for the treated at the optimal dose 25 mg/Kg/day; assay type: functional
Mus musculus [35] = experiment: Antitumor activity was evaluated against the M5076 reticulum cell sarcoma in mice measured as Control tumor volume for the treated at the optimal dose 50 mg/Kg/day; assay type: functional
Mus musculus [36] = experiment: Antitumor activity was evaluated against the TLX5 lymphoma in mice measured as treated to control at optimal dose. 100 mg/Kg/day; assay type: functional
Mus musculus [37] = experiment: Antitumor activity was evaluated against the M5076 reticulum cell sarcoma in mice at dose of 200-25 mg/kg per day; assay type: ADME, organism-based
Mus musculus [38] = experiment: Antitumor activity was evaluated against the TLX5 lymphoma measured as mean death day for the treated at a optimal dose 400 mg/Kg/day; assay type: functional
Mus musculus [39] = experiment: Antitumor activity was evaluated against the TLX5 lymphoma in mice measured for control as death day at a optimal dose 400 mg/Kg/day; assay type: functional
Mus musculus [40] = experiment: Antitumor activity was evaluated against the TLX5 lymphoma in mice measured as treated to control at optimal dose. 800 mg/Kg/day; assay type: functional
Mus musculus [41] = experiment: Antitumor activity was evaluated against the M5076 reticulum cell sarcoma in mice at dose of 150-6.25 mg/kg per day; assay type: ADME, organism-based
Mus musculus [42] = experiment: Antitumor activity was evaluated against the M5076 reticulum cell sarcoma in mice at dose of 1500-600 mg/kg per day; assay type: functional
Mus musculus [43] = experiment: Antitumor activity was evaluated against the M5076 reticulum cell sarcoma in mice measured as mean tumor volume for the treated at the optimal dose 200 mg/Kg/day; assay type: functional
Mus musculus [44] = experiment: Antitumor activity was evaluated against the M5076 reticulum cell sarcoma in mice at dose of 400-100 mg/kg per day; assay type: ADME, organism-based

O=CNCO
LD10 (Mus musculus [1]): 1580 mg/kg/day
LD50 (Mus musculus [1]): 1930 mg/kg/day
Mean tumor volume (Mus musculus [2]): 0.8
T/C (Mus musculus [3]): 38%
Control tumor volume (Mus musculus [4]): 2.1

CNC(=O)c1ccccc1
Mean tumor volume (Mus musculus [5]): 0.8
Control tumor volume (Mus musculus [6]): 1.9
LD10 (Mus musculus [7]): 450 mg/kg/day
LD50 (Mus musculus [7]): 650 mg/kg/day

[2H]C([2H])([2H])NC=O
Control death day (Mus musculus [8]): 13.2
T/C (Mus musculus [9]): 142%
Mean day of death (Mus musculus [10]): 18.8

CNC=O
T/C (Mus musculus [11]): 135%
Control death day (Mus musculus [12]): 9.2
Mean day of death (Mus musculus [13]): 11
T/C (Mus musculus [14]): 0%
Mean day of death (Mus musculus [15]): 16.4
LD10 (Mus musculus [16]): 220 mg/kg/day
LD50 (Mus musculus [16]): 300 mg/kg/day
T/C (Mus musculus [17]): 11%
Control death day (Mus musculus [18]): 9.2
Control death day (Mus musculus [19]): 9.2
T/C (Mus musculus [20]): 191%
Control tumor volume (Mus musculus [21]): 2.7
Mean day of death (Mus musculus [22]): 17.6
Mean tumor volume (Mus musculus [23]): 2.1
Control tumor volume (Mus musculus [24]): 2.7
T/C (Mus musculus [25]): 33%
Mean tumor volume (Mus musculus [26]): 0.3
Mean day of death (Mus musculus [27]): 12.4
Control death day (Mus musculus [28]): 9.2
T/C (Mus musculus [29]): 178%
T/C (Mus musculus [30]): 120%
Mean tumor volume (Mus musculus [31]): 0.9
Control tumor volume (Mus musculus [32]): 2.7
T/C (Mus musculus [33]): 70%
Control tumor volume (Mus musculus [34]): 2.7

CN(C)/C=C\[N+](=O)[O-]
Mean day of death (Mus musculus [13]): 15.4
Control tumor volume (Mus musculus [35]): 1.5
T/C (Mus musculus [36]): 139%
Control death day (Mus musculus [18]): 11.1
LD10 (Mus musculus [37]): 55 mg/kg/day
LD50 (Mus musculus [37]): 75 mg/kg/day
T/C (Mus musculus [25]): 35%
Mean tumor volume (Mus musculus [31]): 0.5

CCNC=O
Mean day of death (Mus musculus [38]): 12.6
Control death day (Mus musculus [39]): 9.2
T/C (Mus musculus [40]): 137%

CNC(=O)ON(C(C)=O)C(=O)NC [CARACEMIDE]
Control tumor volume (Mus musculus [35]): 2.4
LD10 (Mus musculus [41]): 53 mg/kg/day
LD50 (Mus musculus [41]): 63 mg/kg/day
T/C (Mus musculus [25]): 38%
Mean tumor volume (Mus musculus [31]): 0.9

CN(C)C=O [DIMETHYLFORMAMIDE]
Mean tumor volume (Mus musculus [2]): 1
T/C (Mus musculus [3]): 40%
Control tumor volume (Mus musculus [4]): 2.5
LD10 (Mus musculus [42]): 1130 mg/kg/day
LD50 (Mus musculus [42]): 1280 mg/kg/day

NC=O [FORMAMIDE]
T/C (Mus musculus [14]): 38%
Mean tumor volume (Mus musculus [43]): 0.8
Control death day (Mus musculus [8]): 9.1
LD10 (Mus musculus [44]): 200 mg/kg/day
LD50 (Mus musculus [44]): 270 mg/kg/day
Mean day of death (Mus musculus [22]): 11.2
T/C (Mus musculus [40]): 123%
Control tumor volume (Mus musculus [32]): 2.1
